Assay results as given in PubChem BioAssay AID330 (DTP/NCI, 2004).
Values joined by “and” are separate entries in the source; they are usually repeats but may differ in a detail not shown here. Equal values may be shown once. Inconclusive results and toxic doses are left out.

System: P388 leukemia ip, CD2F1 mice, survival T/C
Assay: NCI In Vivo Anticancer Drug Screen. Data for tumor model P388 Leukemia (intraperitoneal) in CD2F1 (CDF1) mice
Details: endpoint: median survival time, higher = longer survival
How it was run: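 Mice carrying the transplanted tumor received test compound or vehicle. Survival was recorded in each group, and the value is the treated-group measurement divided by that of the vehicle-treated control group.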

[1] = dose: 6.25 mg/kg/injection, schedule: Q01DX005 (ip), vehicle: Klucel (hydroxypropylcellulose) (HPC)
[2] = dose: 12.5 mg/kg/injection, schedule: Q04DX002 (ip), vehicle: saline with Tween-80
[3] = dose: 25.0 mg/kg/injection, schedule: Q04DX002 (ip), vehicle: saline with Tween-80
[4] = dose: 50.0 mg/kg/injection, schedule: Q04DX002 (ip), vehicle: saline with Tween-80
[5] = dose: 25.0 mg/kg/injection, schedule: Q01DX005 (ip), vehicle: Klucel (hydroxypropylcellulose) (HPC)
[6] = dose: 100.0 mg/kg/injection, schedule: Q01DX005 (ip), vehicle: Klucel (hydroxypropylcellulose) (HPC)
[7] = dose: 50.0 mg/kg/injection, schedule: Q01DX009 (ip), vehicle: saline
[8] = dose: 100.0 mg/kg/injection, schedule: Q01DX009 (ip), vehicle: saline
[9] = dose: 200.0 mg/kg/injection, schedule: Q01DX009 (ip), vehicle: saline
[10] = dose: 50.0 mg/kg/injection, schedule: Q01DX005 (ip), vehicle: saline with Tween-80
[11] = dose: 100.0 mg/kg/injection, schedule: Q01DX005 (ip), vehicle: saline with Tween-80
[12] = dose: 200.0 mg/kg/injection, schedule: Q01DX005 (ip), vehicle: saline with Tween-80
[13] = dose: 60.0 mg/kg/injection, schedule: Q01DX005 (ip), vehicle: saline
[14] = dose: 120.0 mg/kg/injection, schedule: Q01DX005 (ip), vehicle: saline
[15] = dose: 100.0 mg/kg/injection, schedule: Q04DX003 (ip), vehicle: saline
[16] = dose: 200.0 mg/kg/injection, schedule: Q04DX003 (ip), vehicle: saline
[17] = dose: 400.0 mg/kg/injection, schedule: Q04DX003 (ip), vehicle: saline

SMILES: C[CH2][Sn]([CH2]C)([n]1c2ccccc2c2c(C)c3cnccc3c(C)c21)[n]1c2ccccc2c2c(C)c3cnccc3c(C)c21
- T/C (dose: 1.56 mg/kg/injection, schedule: Q01DX005 (ip), vehicle: Klucel (hydroxypropylcellulose) (HPC)): 118 % of control
- T/C [1]: 155 % of control

SMILES: CN=C(N)N/N=C(\C)c1ccc2c(c1)Cc1cc(Cl)ccc1-2
- T/C [2]: 112 % of control
- T/C [3]: 113 % of control and 118 % of control
- T/C [4]: 113 % of control and 118 % of control
- T/C (dose: 100.0 mg/kg/injection, schedule: Q04DX002 (ip), vehicle: saline with Tween-80): 102 % of control

SMILES: O=C1CCC(c2n[nH]c(=S)o2)N1 (configuration not stated)
- T/C (dose: 60.0 mg/kg/injection, schedule: Q01DX005 (ip), vehicle: saline with Tween-80): 104 % of control
- T/C (dose: 120.0 mg/kg/injection, schedule: Q01DX005 (ip), vehicle: saline with Tween-80): 105 % of control
- T/C (dose: 240.0 mg/kg/injection, schedule: Q01DX005 (ip), vehicle: saline with Tween-80): 108 % of control

SMILES: O=C(OCC1OC(n2cc(C(F)(F)F)c(=O)[nH]c2=O)CC1OC(=O)c1ccc([N+](=O)[O-])cc1)c1ccc([N+](=O)[O-])cc1 (configuration not stated)
- T/C (dose: 12.0 mg/kg/injection, schedule: Q01DX005 (ip), vehicle: Klucel (hydroxypropylcellulose) (HPC)): 100 % of control
- T/C [5]: 108 % of control
- T/C (dose: 50.0 mg/kg/injection, schedule: Q01DX005 (ip), vehicle: Klucel (hydroxypropylcellulose) (HPC)): 105 % of control and 108 % of control
- T/C [6]: 107 % of control

SMILES: COC(=O)C1=C(OC(C)=O)c2ccccc2CS1
- T/C (dose: 50.0 mg/kg/injection, schedule: Q01DX001 (ip), vehicle: Klucel (hydroxypropylcellulose) (HPC)): 98 % of control
- T/C (dose: 100.0 mg/kg/injection, schedule: Q01DX001 (ip), vehicle: Klucel (hydroxypropylcellulose) (HPC)): 92 % of control
- T/C (dose: 200.0 mg/kg/injection, schedule: Q01DX001 (ip), vehicle: Klucel (hydroxypropylcellulose) (HPC)): 96 % of control

SMILES: NCc1ccccc1Br
- T/C (dose: 50.0 mg/kg/injection, schedule: Q01DX005 (ip), vehicle: distilled water + alcohol): 101 % of control
- T/C (dose: 100.0 mg/kg/injection, schedule: Q01DX005 (ip), vehicle: distilled water + alcohol): 100 % of control
- T/C (dose: 200.0 mg/kg/injection, schedule: Q01DX005 (ip), vehicle: distilled water + alcohol): 103 % of control

SMILES: CN(C)C1C(O)C2Oc3c(cc(O)c4c3C(=O)c3cc5c(c(O)c3C4=O)C(OCCN)CC(C)(O)C5)C(C)(O2)C1O (configuration not stated)
- T/C (dose: 5.0 mg/kg/injection, schedule: Q01DX009 (ip), vehicle: other): 99 % of control
- T/C (dose: 10.0 mg/kg/injection, schedule: Q01DX009 (ip), vehicle: other): 101 % of control
- T/C (dose: 20.0 mg/kg/injection, schedule: Q01DX009 (ip), vehicle: other): 106 % of control
- T/C (dose: 40.0 mg/kg/injection, schedule: Q01DX009 (ip), vehicle: other): 117 % of control

SMILES: CCn1c(=O)c2n[nH]nc2n(C2CC2)c1=O
- T/C [7]: 92 % of control
- T/C [8]: 96 % of control
- T/C [9]: 105 % of control

SMILES: COc1ccc2c(c1)OCCN(C)C2c1ccccc1 (configuration not stated)
- T/C [10]: 97 % of control
- T/C [11]: 99 % of control
- T/C [12]: 99 % of control

SMILES: C=C(C)C1CC=C(C)/C(=N/NC(=O)c2ccccn2)C1 (configuration not stated)
- T/C (dose: 100.0 mg/kg/injection, schedule: Q04DX003 (ip), vehicle: Klucel (hydroxypropylcellulose) (HPC)): 111 % of control
- T/C (dose: 200.0 mg/kg/injection, schedule: Q04DX003 (ip), vehicle: Klucel (hydroxypropylcellulose) (HPC)): 94 % of control
- T/C (dose: 400.0 mg/kg/injection, schedule: Q04DX003 (ip), vehicle: Klucel (hydroxypropylcellulose) (HPC)): 94 % of control

SMILES: Clc1ccc2c(cnc3ccccc32)n1
- T/C [2]: 102 % of control
- T/C [3]: 102 % of control
- T/C [4]: 101 % of control

SMILES: CC(=O)OCC1OC(Nc2[nH]c(=O)[nH]c(=O)c2N=O)C(OC(C)=O)C(OC(C)=O)C1OC(C)=O (configuration not stated)
- T/C [13]: 111 % of control
- T/C [14]: 103 % of control
- T/C (dose: 240.0 mg/kg/injection, schedule: Q01DX005 (ip), vehicle: saline): 103 % of control

SMILES: N#CCS(=O)CC(N)C(=O)O (configuration not stated)
- T/C [10]: 102 % of control
- T/C [11]: 101 % of control
- T/C [12]: 100 % of control

SMILES: C=CC1CCCCC1C=C (configuration not stated)
- T/C (dose: 12.5 mg/kg/injection, schedule: Q04DX003 (ip), vehicle: saline): 100 % of control
- T/C (dose: 25.0 mg/kg/injection, schedule: Q04DX003 (ip), vehicle: saline): 113 % of control
- T/C (dose: 50.0 mg/kg/injection, schedule: Q04DX003 (ip), vehicle: saline): 100 % of control

SMILES: OC12CCCCC1CCCS2 (configuration not stated)
- T/C [15]: 98 % of control
- T/C [16]: 94 % of control
- T/C [17]: 102 % of control

SMILES: Cc1ccc(S(=O)/C=C/c2ccccc2)cc1 (configuration not stated)
- T/C (dose: 50.0 mg/kg/injection, schedule: Q01DX009 (ip), vehicle: other): 103 % of control
- T/C (dose: 100.0 mg/kg/injection, schedule: Q01DX009 (ip), vehicle: other): 97 % of control
- T/C (dose: 200.0 mg/kg/injection, schedule: Q01DX009 (ip), vehicle: other): 101 % of control

SMILES: CCOC(=O)CN1CCC(C(=O)OC)CC1
- T/C [15]: 100 % of control
- T/C [16]: 100 % of control
- T/C [17]: 100 % of control

SMILES: Nc1ccccc1SCc1csc(-c2ccc(Cl)cc2)n1
- T/C [7]: 103 % of control
- T/C [8]: 114 % of control
- T/C [9]: 109 % of control

SMILES: COc1cccnc1/C=N/NC(N)=S
- T/C (dose: 3.13 mg/kg/injection, schedule: Q01DX009 (ip), vehicle: saline with Tween-80): 124 % of control

SMILES: Cc1ccc(-n2ncc3c(=O)n(-c4cccc(C)c4)c(=O)[nH]c32)cc1
- T/C (dose: 50.0 mg/kg/injection, schedule: Q01DX009 (ip), vehicle: Klucel (hydroxypropylcellulose) (HPC)): 99 % of control
- T/C (dose: 100.0 mg/kg/injection, schedule: Q01DX009 (ip), vehicle: Klucel (hydroxypropylcellulose) (HPC)): 97 % of control
- T/C (dose: 200.0 mg/kg/injection, schedule: Q01DX009 (ip), vehicle: Klucel (hydroxypropylcellulose) (HPC)): 96 % of control

SMILES: Clc1ccc(C2=CSC3=NCCN23)cc1
- T/C (dose: 12.5 mg/kg/injection, schedule: Q01DX009 (ip), vehicle: Klucel (hydroxypropylcellulose) (HPC)): 111 % of control
- T/C (dose: 25.0 mg/kg/injection, schedule: Q01DX009 (ip), vehicle: Klucel (hydroxypropylcellulose) (HPC)): 110 % of control

SMILES: CCCc1c(-c2ccccc2)nc(N)nc1-c1nc(N)nc(-c2ccccc2)c1CCC
- T/C [13]: 100 % of control
- T/C [14]: 95 % of control

SMILES: CN(C)C(=S)c1ccccc1NS(=O)(=O)c1ccccc1
- T/C [15]: 106 % of control
- T/C [16]: 100 % of control
- T/C [17]: 97 % of control

SMILES: C=CC/C(=N\OS(=O)(=O)O)SC1OC(CO)C(O)C(O)C1O (configuration not stated)
- T/C (dose: 25.0 mg/kg/injection, schedule: Q01DX005 (ip), vehicle: saline): 92 % of control and 98 % of control
- T/C (dose: 50.0 mg/kg/injection, schedule: Q01DX005 (ip), vehicle: saline): 102 % of control [middle of 4 runs]
- T/C (dose: 100.0 mg/kg/injection, schedule: Q01DX005 (ip), vehicle: saline): 101 % of control and 102 % of control and 104 % of control
- T/C (dose: 200.0 mg/kg/injection, schedule: Q01DX005 (ip), vehicle: saline): 100 % of control and 101 % of control and 98 % of control

SMILES: CCOC(=O)C(Cc1ccc(N(CCCl)CCCl)cc1)NC(=O)C(Cc1ccccc1)NC=O (configuration not stated)
- T/C (dose: 25.0 mg/kg/injection, schedule: Q01DX009 (ip), vehicle: saline with Tween-80): 172 % of control
- T/C (dose: 50.0 mg/kg/injection, schedule: Q01DX009 (ip), vehicle: saline with Tween-80): 86 % of control
- T/C (dose: 100.0 mg/kg/injection, schedule: Q04DX003 (ip), vehicle: saline with Tween-80): 166 % of control
- T/C (dose: 200.0 mg/kg/injection, schedule: Q04DX003 (ip), vehicle: saline with Tween-80): 220 % of control

SMILES: O=C1C2(CCCC13N=NCC3c1ccccc1)N=NCC2c1ccccc1 (configuration not stated)
- T/C (dose: 60.0 mg/kg/injection, schedule: Q01DX005 (ip), vehicle: Klucel (hydroxypropylcellulose) (HPC)): 93 % of control
- T/C (dose: 120.0 mg/kg/injection, schedule: Q01DX005 (ip), vehicle: Klucel (hydroxypropylcellulose) (HPC)): 88 % of control
- T/C (dose: 240.0 mg/kg/injection, schedule: Q01DX005 (ip), vehicle: Klucel (hydroxypropylcellulose) (HPC)): 93 % of control

SMILES: Nc1cccc(NCc2ccncc2)n1
- T/C [1]: 98 % of control and 99 % of control and 100 % of control
- T/C (dose: 12.5 mg/kg/injection, schedule: Q01DX005 (ip), vehicle: Klucel (hydroxypropylcellulose) (HPC)): 100 % of control and 101 % of control and 94 % of control
- T/C [5]: 100 % of control (2×) and 96 % of control
- T/C [6]: 113 % of control
